Laboratory results reported in PubChem BioAssay (NCI).
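Method: 48-hour compound exposure of cells in 96-well plates, five concentrations, linear interpolation of endpoints. Here, GI50 denotes the concentration required for 50% inhibition of growth. TGI denotes the concentration required for complete inhibition of growth.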

Tests used:
Assay in all cases: NCI tumour cell line growth inhibition, 48 h
SW-620 colon = system: SW-620 colon
UO-31 renal = system: UO-31 renal
OVCAR-4 ovarian = system: OVCAR-4 ovarian
SK-MEL-2 melanoma = system: SK-MEL-2 melanoma
SK-MEL-28 melanoma = system: SK-MEL-28 melanoma
UACC-62 melanoma = system: UACC-62 melanoma
SN12C renal = system: SN12C renal
U251 CNS = system: U251 CNS
NCI-H460 lung = system: NCI-H460 lung
SF-295 CNS = system: SF-295 CNS

Row | SMILES | TGI (SW-620 colon) [µM] | TGI (UO-31 renal) [µM] | TGI (OVCAR-4 ovarian) [µM] | TGI (SK-MEL-2 melanoma) [µM] | TGI (SK-MEL-28 melanoma) [µM] | TGI (UACC-62 melanoma) [µM] | TGI (SN12C renal) [µM] | TGI (U251 CNS) [µM] | TGI (NCI-H460 lung) [µM] | TGI (SF-295 CNS) [µM] | GI50 (SW-620 colon) [µM] | GI50 (UO-31 renal) [µM] | GI50 (OVCAR-4 ovarian) [µM] | GI50 (SK-MEL-2 melanoma) [µM] | GI50 (SK-MEL-28 melanoma) [µM] | GI50 (UACC-62 melanoma) [µM] | GI50 (SN12C renal) [µM] | GI50 (U251 CNS) [µM] | GI50 (NCI-H460 lung) [µM] | GI50 (SF-295 CNS) [µM]
1 | CC(N)C(=O)OCN1C(=O)C2C3C=CC(C2C1=O)C1C2C(=O)N(COC(=O)C(C)N)C(=O)C2C31 (stereo unspecified) | 47.4 | > 100 | 40.9 | 39 | 41.4 | 49 | 55.8 | 50.3 | 34.3 | > 100 |  |  |  |  |  |  |  |  |  | 
2 | CNC1C(O)C(NC)C2OC3(O)C(=O)CC(C)OC3OC2C1O (stereo unspecified) | > 100 | > 100 | > 100 | > 100 | > 100 | > 100 | > 100 | > 100 | > 100 | > 100 |  |  |  |  |  |  |  |  |  | 
3 | C1CCC(OCc2nnn3c2CCC3)OC1 (stereo unspecified) | > 100 | > 100 | > 100 | > 100 | > 100 | > 100 | > 100 | > 100 | > 100 | > 100 |  |  |  |  |  |  |  |  |  | 
4 | CCCCC(C(=O)N/N=C/c1ccc([N+](=O)[O-])o1)C(=O)N/N=C/c1ccc([N+](=O)[O-])o1 | 6.71 | 4.6 | 3.4 | 36.1 | 14.7 | 11.5 | 12.3 | 10.3 | 35.6 | 31.4 |  |  |  |  |  |  |  |  |  | 
5 | Cc1nc2c(O)cc3c4c(=O)n(C)c(=O)n(C)c4n(Cc4ccccc4)c3c2nc1C | 44.2 | 31.4 | 23.7 | 31.9 | 28 | 34 | 38.1 | 35.4 | > 100 | > 100 |  |  |  |  |  |  |  |  |  | 
6 | Cc1cccc(O)c1-c1nnc(CCCCCCCCc2nnc(-c3c(C)cccc3O)n2N)n1N | > 100 | > 100 | > 56.1 | > 83.3 | > 100 | > 100 | > 100 | 67.5 | > 100 | > 100 |  |  |  |  |  |  |  |  |  | 
7 | CO[C@H]1ON=C(c2c(C)cc(C)cc2C)[C@@H]1C1(c2ccccc2)ON=C(c2c(C)cc(C)cc2C)O1 (stereo partly specified) | > 100 | > 100 |  | > 100 | > 100 | > 100 | > 100 | > 100 | > 100 | > 100 |  |  |  |  |  |  |  |  |  | 
8 | [O-]c1c[n+](CCCC[n+]2cc([O-])on2)no1 | > 100 | > 100 | > 100 | > 100 | > 100 | > 100 | > 100 | > 100 | > 100 | > 100 |  |  |  |  |  |  |  |  |  | 
9 | C=C1C(=O)OC2/C=C(\C)C3OC3/C=C(/C(=O)OC)C(O)C(OC(=O)C3(C)OC3C)C12 (stereo unspecified) | 3.1 | 27.3 | 8.77 | 6.46 | 3.17 | 5.19 | 5.64 | 16.8 | 17.8 | 27 |  |  |  |  |  |  |  |  |  | 
10 | COc1ccc(CC2c3cc(OC)c(OC)c(OC)c3CC[N+]2(C)C)cc1Oc1ccc(CC2c3cc4c(c(OC)c3CC[N+]2(C)C)OCO4)cc1 (stereo unspecified) | > 100 | > 100 | > 100 | > 100 | > 100 | > 100 | > 100 | > 100 | > 100 | > 100 |  |  |  |  |  |  |  |  |  | 
11 | CC(C)OC(=O)Nc1cccc(Cl)c1 | > 100 | > 100 | > 100 | > 100 | > 100 | > 100 | > 100 | > 100 | > 100 | > 100 |  |  |  |  |  |  |  |  |  | 
12 | Cn1cc(-c2csc(-c3cn(C)c4ccc(Br)cc34)n2)c2cnccc21 | 3.48 | 3 | 3.15 | 3.76 | 3.3 | 3.21 | 2.92 | 3.27 | 3.47 | 3.4 | 1.85 | 1.63 | 1.68 | 1.93 | 1.85 | 1.72 | 1.53 | 1.78 | 1.87 | 1.81
13 | Cc1ccc(S(=O)(=O)N2c3ccccc3[C@H]3CCc4c([nH]c5ccccc45)[C@H]32)cc1 | > 100 | > 100 | > 100 | > 100 | > 100 | > 100 | > 100 | > 100 | > 100 | > 100 |  |  |  |  |  |  |  |  |  | 
14 | C[C@H]1C(=O)O[C@@H]1[C@H]1COC(C)(C)O1 | > 100 | > 100 | > 100 | > 100 | > 100 | > 100 | > 100 | > 100 | > 100 | > 100 |  |  |  |  |  |  |  |  |  | 
15 | CCN1CCN(c2nc3ccccc3nc2C(=O)c2ccc(OC)cc2)CC1 | > 100 | > 100 | > 100 | > 100 | > 100 | 45 |  | > 100 | > 100 | > 100 |  |  |  |  |  |  |  |  |  | 
16 | COC(=O)C(=O)C(C(=O)C1=NS(=O)(=O)c2cc(S(N)(=O)=O)c(Cl)cc2N1)c1nc2ccc(C(=O)c3ccccc3)cc2[nH]c1=O (stereo unspecified) | > 100 | > 100 | > 100 | > 100 | > 100 | > 100 | > 100 | > 100 | > 100 | > 100 |  |  |  |  |  |  |  |  |  | 
17 | CN1C(=O)CN2C(Cl)(Cl)C2(c2ccccc2F)c2cc([N+](=O)[O-])ccc21 (stereo unspecified) | > 100 | > 100 | > 100 | > 100 | > 100 | > 100 | 80.7 | > 100 | > 100 | > 100 |  |  |  |  |  |  |  |  |  | 
18 | c1ccc(CSC2(SCc3ccccc3)CCCC2)cc1 | > 10 | > 10 | > 10 | > 10 | > 10 | > 10 | > 10 | > 10 | > 10 | > 10 |  |  |  |  |  |  |  |  |  | 
19 | Cc1cc(S(=O)(=O)NC(=C(C#N)C#N)[n+]2ccc(N(C)C)cc2)c([S-])cc1Cl |  | > 100 | > 100 | > 100 | > 100 | > 100 | > 100 | > 100 | > 100 | > 100 |  |  |  |  |  |  |  |  |  | 
20 | NC(=O)c1ccc(NS(=O)(=O)c2ccc(N)cc2)nc1 | > 100 | > 100 | > 100 | > 100 | > 100 | > 100 | > 100 | > 100 | > 100 | > 100 |  |  |  |  |  |  |  |  |  | 
21 | Nc1nc(Cl)cc(NCCCNc2cc(Cl)nc(N)n2)n1 | > 100 | > 100 | > 100 | > 100 | > 100 | > 100 | > 100 | > 100 | > 100 | > 100 |  |  |  |  |  |  |  |  |  | 
22 | Cc1ccccc1[P+](C)(c1ccccc1C)c1ccccc1C | 39.1 | 34.8 | 18.1 | 34.7 | 35.8 | 25.7 | 43.9 | 28.4 | > 100 |  |  |  |  |  |  |  |  |  |  | 
23 | CN(C)CCCNC(=O)c1cc(NC(=O)c2cc(NS(=O)(=O)c3ccc4c(c3)C(=O)c3ccccc3C4=O)cn2C)cn1C | > 100 | > 100 | > 100 | > 100 | > 100 | > 100 | > 100 | > 100 | > 100 | > 100 |  |  |  |  |  |  |  |  |  | 
24 | CC1=C(C#N)C23C(=O)c4ccccc4C(O)=C2C(=O)C=CC3(O)N1 (stereo unspecified) | 12.6 | 7.55 | 4.16 | 22.5 | 5.23 | 6.4 | 6.19 | > 100 | 31.1 | 66.9 |  |  |  |  |  |  |  |  |  | 
